Structures are written as SMILES.

Experiment [1] has as its target T1, IDO1 (Homo sapiens (Human), UniProt P14902). Nature of the experiment: IDO1 Enzyme Assay. As to conditions: HIS-tagged recombinant IDO1, 40 nM.
Experiment [2] concerns the target T1, IDO1. The experiment is described as follows: IDO1 Cellular Assay in Hela Cells Stimulated with IFNγ. To be noted: Hela cells stimulated with IFNγ 100 ng/mL; read-out: IDO1 HELA Cell Assay, IC50. The format is cell-based.
Experiment [3] addresses T1, IDO1. The experiment is described as follows: IDO1 Cellular Assay in Frozen HEK293 Cells Transiently Transfected with Human IDO1. The class given is cell-based. As to conditions: HEK293 cells transiently transfected with human IDO1; read-out: IDO1 HEK293 Cell Assay, IC50.
The target of experiment [4] is T1, IDO1. The experiment is described as follows: IDO1 Human Whole Blood Assay. The format is cell-based. As to conditions: LPS and IFNγ 100 ng/mL, kynurenine by LC/MS/MS. As for the experimental part:
IDO1 Human Whole Blood Assay
LPS and IFNγ was prepared in RPMI to a 10× of final conc. (1000 ng/mL), final concentration is 100 ng/mL.
Human whole blood was drawn in sodium heparin coated tubes from healthy internal donors. Two hundred fourty μL of blood was transferred to each of the wells of a v-bottom 96 well plate. Thirty μL of compound was transferred from intermediate dilution plate, and incubated for 15 min. […] from stimulants was then transferred to blood and mixed thoroughly. Plate was covered with breathable membrane and incubated at 37° C. for overnight (18 h).
On day 2 isotope labeled standard of kunurenine and tryptophan was made in water at 10× concentration and 30 μL was added to the blood at 3 μM final concentration. The assay plates were centrifuged at 300×G for 10 min with no brake to separate plasma from red blood cells. Sixty μL of plasma samples was removed without disturbing red blood cells. Plasma was diluted with RPMI in 1:1 ratio and proteins were precipitated out with two volume of Acetonitrile. The plates was centrifuged at 4000×G for 60 min. Twenty μL of supernatant was carefully transferred to a 384 well plate contain 40 μL of 0.1% formic acid in water and analysed by LC/MS/MS.
LC/MS/MS analyses were performed using Thermo Fisher's LX4-TSQ Quantum Ultra system. This system consists of four Agilent binary high-performance liquid chromatography (HPLC) pumps and a TSQ Quantum Ultra triple quadrupole MS/MS instrument. For each sample, 5 μL were injected onto an Atlantis T3 column column (2.1 mm×150 mm, 3 μm particle size) from Waters. The mobile phase gradient pumped at 0.8 mL/min was used to elute the analytes from the column at 25° C. The elution started at 0% B increasing linearly to 25% B at 6.5 min, holding at 25% for 1 min, re-equilibrating to 10 min. Mobile phase A consisted of 0.1% formic acid in water. Mobile phase B consisted of 0.1% of formic acid in acetonitrile. Data was acquired in positive mode using a HESI interface. The operational parameters for the TSQ Quantum Ultra instrument were a spray voltage of 4000 V, capillary temperature of 380° C., vaporizer temperature 400° C., shealth gas 60 arbitrary units, Aux gas 20 arbitrary units, tube lens 85 and collision gas 1.2 mTorr. SRM chromatograms of kynurenine (Q1: 209.2>Q3:94.0) and internal standard (Q1: 215.3>Q3:98.2) were collected for 90 sec. The peak area was integrated by Xcalibur Quan software. The ratios between the kynurenine generated in the reaction and 2D6-Kynurenine spiked-in internal standard were used to generate percentage inhibition and IC50 values. Compounds were titrated and IC50's were calculated by 4 parameter sigmoidal curve fitting formula.

[5] abbreviates: read-out: IDO1 Enzyme Assay, IC50.

T1 sequence (P14902 whole entry): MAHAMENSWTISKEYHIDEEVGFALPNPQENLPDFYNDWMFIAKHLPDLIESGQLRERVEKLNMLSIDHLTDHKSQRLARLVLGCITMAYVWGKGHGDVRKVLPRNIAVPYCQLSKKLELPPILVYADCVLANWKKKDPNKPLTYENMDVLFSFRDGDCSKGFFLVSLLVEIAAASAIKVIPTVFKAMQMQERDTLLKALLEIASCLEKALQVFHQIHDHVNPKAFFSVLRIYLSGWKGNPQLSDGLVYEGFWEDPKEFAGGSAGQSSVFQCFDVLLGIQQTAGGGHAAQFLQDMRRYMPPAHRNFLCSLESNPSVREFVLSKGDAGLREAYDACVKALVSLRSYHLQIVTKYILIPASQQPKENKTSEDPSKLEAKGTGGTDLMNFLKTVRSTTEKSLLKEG

As a reminder, the IC50 is the point on the concentration scale where inhibition reaches its midpoint. As for `CC(C)(O)C(O)CSc1nonc1/C(=N/O)Nc1ccc(F)c(Cl)c1` (single isomer, unassigned) [Example 189, N-(3-chloro-4-fluorophenyl)-4-[(2,3-dihydroxy-3-methylbutyl)sulfanyl]-N′-hydroxy-1,2,5-oxadiazole-3-carboximidamide], the IC50 was 69.4 nM at IDO1 [1] (IDO1 Enzyme Assay, IC50, nM); 66 nM on IDO1 [2]; 39.9 nM at IDO1 [3]; 704 nM at IDO1 [4].
The corresponding values for `CC(C)(O)C(O)CSc1nonc1/C(=N/O)Nc1ccc(F)c(Cl)c1` (single isomer, unassigned) [Example 190, N-(3-chloro-4-fluorophenyl)-4-[(2,3-dihydroxy-3-methylbutyl)sulfanyl]-N′-hydroxy-1,2,5-oxadiazole-3-carboximidamide] are 79.1 nM, 111 nM, 56.8 nM and 1390 nM.
Regarding `OCC(O)CSc1nonc1/C(=N/O)Nc1ccc(F)c(Br)c1` (centres unmarked) [Example 17, (Z)-N-(3-bromo-4-fluorophenyl)-4-((2,3-dihydroxypropyl)thio)-N′-hydroxy-1,2,5-oxadiazole-3-carboximidamide], the IC50 at IDO1 [1] (setting [5]) stood at 34.8 nM; at IDO1 [2], 39.5 nM; at IDO1 [3], 42.5 nM; at IDO1 [4] it was 441 nM.
With `CC(C)(O)C(O)CSc1nonc1/C(=N/O)Nc1ccc(F)c(Br)c1` (centres unmarked) [Example 29, N-(3-bromo-4-fluorophenyl)-4-((2,3-dihydroxy-3-methylbutyl)thio)-N′-hydroxy-1,2,5-oxadiazole-3-carboximidamide], the concentration for half-maximal inhibition (IC50) was 81.3 nM on IDO1 [1] (IDO1 Enzyme Assay, IC50, nM); 61 nM on IDO1 [2]; 23.6 nM at IDO1 [3]; 784 nM against IDO1 [4].
With `CC(C)(O)C(O)CSc1nonc1/C(=N/O)Nc1ccc(F)c(Br)c1` (centres unmarked) [Example 30, N-(3-bromo-4-fluorophenyl)-4-((2,3-dihydroxy-3-methylbutyl)thio)-N′-hydroxy-1,2,5-oxadiazole-3-carboximidamide], the IC50 is 85.3 nM at IDO1 [1] (IDO1 Enzyme Assay, IC50, nM); 84.2 nM on IDO1 [2]; 29.4 nM on IDO1 [3]; 891 nM at IDO1 [4].
With `CNc1c(NCCSc2nonc2/C(=N/O)Nc2ccc(F)c(Br)c2)c(=O)c1=O` [Example 36, N-(3-bromo-4-fluorophenyl)-N′-hydroxy-4-((2-((2-(methylamino)-3,4-dioxocyclobut-1-en-1-yl)amino)ethyl)thio)-1,2,5-oxadiazole-3-carboximidamide], the IC50 at IDO1 [2] was 94.8 nM; on IDO1 [3], 206 nM; against IDO1 [4], 7110 nM.
As for `O=C(CSc1nonc1/C(=N/O)Nc1ccc(F)c(Br)c1)N[C@@H]1C[C@@H](O)[C@@H](O)C1` [Example 144, 2-({4-[N-(3-bromo-4-fluorophenyl)-N′-hydroxycarbamimidoyl]-1,2,5-oxadiazol-3-yl}sulfanyl)-N-[(1s,3R,4S)-3,4-dihydroxycyclopentyl]acetamide], the IC50 at IDO1 [1] (setting [5]) came out at 75.8 nM; on IDO1 [3], 549 nM; against IDO1 [4], 3990 nM.
As to `OC[C@H](O)CSc1nonc1/C(=N/O)Nc1ccc(F)c(Cl)c1` [Example 170, N-(3-chloro-4-fluorophenyl)-4-{[(2S)-2,3-dihydroxypropyl]sulfanyl}-N′-hydroxy-1,2,5-oxadiazole-3-carboximidamide], the IC50 at IDO1 [1] (setting [5]) stood at 68.4 nM; on IDO1 [2], 110 nM; on IDO1 [3], 132 nM.
For `ON=C(Nc1ccc(F)c(Br)c1)c1nonc1SCCn1ccnc1` [Example 172, N-(3-bromo-4-fluorophenyl)-N′-hydroxy-4-{[2-(1H-imidazol-1-yl)ethyl]sulfanyl}-1,2,5-oxadiazole-3-carboximidamide], the IC50 on IDO1 [1] (IDO1 Enzyme Assay, IC50, nM) is 78.6 nM; on IDO1 [2], 43.4 nM; at IDO1 [3] it was 47.5 nM.
In the case of `CC(CO)(CO)NC(=O)CSc1nonc1/C(=N/O)Nc1ccc(F)c(Br)c1` [Example 174, 2-({4-[N-(3-bromo-4-fluorophenyl)-N′-hydroxycarbamimidoyl]-1,2,5-oxadiazol-3-yl}sulfanyl)-N-[2-hydroxy-1-(hydroxymethyl)-1-methylethyl]acetamide], the concentration for half-maximal inhibition (IC50) at IDO1 [1] (setting [5]) amounted to 82.7 nM; at IDO1 [2] it was 63.6 nM; at IDO1 [3], 113 nM.
Take `CC(O)C(CO)NC(=O)CSc1nonc1/C(=N/O)Nc1ccc(F)c(Br)c1` (centres unmarked) [Example 176, 2-({4-[N-(3-bromo-4-fluorophenyl)-N′-hydroxycarbamimidoyl]-1,2,5-oxadiazol-3-yl}sulfanyl)-N-[2-hydroxy-1-(hydroxymethyl)propyl]acetamide]: the IC50 at IDO1 [1] (setting [5]) amounted to 116 nM; at IDO1 [2], 127 nM; on IDO1 [3], 182 nM.
The corresponding values for `O=C(CSc1nonc1/C(=N/O)Nc1ccc(F)c(Br)c1)N[C@H]1C[C@@H](O)[C@@H](O)C1` [Example 177, 2-({4-[N-(3-bromo-4-fluorophenyl)-N′-hydroxycarbamimidoyl]-1,2.5-oxadiazol-3-yl}sulfanyl)-N-[(1r,3R,4S)-3,4-dihydroxycyclopentyl]acetamide] are 97.3 nM, 469 nM and 411 nM.
Turning to `CC(=O)N[C@@H](C)CSc1nonc1/C(=N/O)Nc1ccc(F)c(C#N)c1` [Example 180, N-[(1S)-2-({4-[N-(3-cyano-4-fluorophenyl)-N′-hydroxycarbamimidoyl]-1,2,5-oxadiazol-3-yl}sulfanyl)-1-methylethyl]acetamide], the 50% inhibitory concentration (IC50) on IDO1 [1] (setting [5]) was 196 nM; on IDO1 [2], 426 nM; on IDO1 [3], 309 nM.
With `CS(=O)(=O)NCCSc1nonc1/C(=N/O)Nc1ccc(F)c(C(F)F)c1` [Example 183, N-[3-(difluoromethyl)-4-fluorophenyl]-N′-hydroxy-4-({2-[(methylsulfonyl)amino]ethyl}sulfanyl)-1,2,5-oxadiazole-3-carboximidamide], the results for the IC50 on IDO1 [1] (setting [5]), on IDO1 [2] and on IDO1 [3] were 52.5 nM, 58.2 nM and 25.6 nM, respectively.
The corresponding values for `CS(=O)(=O)NCCSc1nonc1/C(=N/O)Nc1ccc(F)c(Cl)c1` [Example 184, N-(3-chloro-4-fluorophenyl)-N′-hydroxy-4-({2-[(methylsulfonyl)amino]ethyl}sulfanyl)-1,2,5-oxadiazole-3-carboximidamide] are 50.9 nM, 47.4 nM and 16.1 nM.
Consider `N#Cc1cc(N/C(=N\O)c2nonc2SCC(=O)NC2COC2)ccc1F` [Example 186, 2-({4-[N-(3-cyano-4-fluorophenyl)-N′-hydroxycarbamimidoyl]-1,2,5-oxadiazol-3-yl}sulfanyl)-N-oxetan-3-ylacetamide], for which the IC50 at IDO1 [1] (setting [5]) turned out to be 180 nM; at IDO1 [2], 322 nM; at IDO1 [3], 412 nM.
As to `N#Cc1cc(N/C(=N\O)c2nonc2SCCNC(=O)[C@H]2CC2(F)F)ccc1F` [Example 187, (1R)-N-[2-({4-[N-(3-cyano-4-fluorophenyl)-N′-hydroxycarbamimidoyl]-1,2,5-oxadiazol-3-yl}sulfanyl)ethyl]-2,2-difluorocyclopropanecarboxamide], the IC50 on IDO1 [1] (setting [5]) was determined as 86 nM; at IDO1 [2], 272 nM; on IDO1 [3] it was 140 nM.
Consider `N#Cc1cc(N/C(=N\O)c2nonc2SCCNC(=O)[C@@H]2CC2(F)F)ccc1F` [Example 188, (1S)-N-[2-({4-[N-(3-cyano-4-fluorophenyl)-N′-hydroxycarbamimidoyl]-1,2,5-oxadiazol-3-yl}sulfanyl)ethyl]-2,2-difluorocyclopropanecarboxamide], for which the IC50 on IDO1 [1] (setting [5]) is 87.9 nM; on IDO1 [2], 173 nM; on IDO1 [3], 87.7 nM.
Turning to `CN(C)CCSc1nsnc1/C(=N/O)Nc1ccc(F)c(Br)c1` [Example 209, N-(3-bromo-4-fluorophenyl)-4-{[2-(dimethylamino)ethyl]sulfanyl}-N′-hydroxy-1,2,5-thiadiazole-3-carboximidamide], the half-maximal inhibitory concentration (IC50) amounted to 1280 nM on IDO1 [1] (setting [5]), 968 nM at IDO1 [2] and 770 nM on IDO1 [3].

For the origin of these results see US10538497B2, “Compounds as indoleamine 2,3-dioxygenase inhibitors” (Merck Sharp & Dohme Corp., priority 2015, dated 2020).
